Data from PMC7391456, “Targeting fibroblast activation protein (FAP): next generation PET radiotracers using squaramide coupled bifunctional DOTA and DATA^5m chelators” (EJNMMI Radiopharmacy and Chemistry, 2020).

Experiments:
FAP = tested on: FAP; design: method as in originally published value; details: different FAP substrate (Ala-Pro-pNA); ref originally published value; cited from earlier work
HT-1080 FAP = tested on: HT-1080 FAP; design: method as in Lindner et al. [2018]; details: HT-1080 FAP tumor model, read from graphs; ref Lindner et al. [2018]; cited from earlier work
PANC-1 = tested on: PANC-1; design: method as in Watabe et al. [2020]; details: read from graphs, ref Watabe et al. [2020], cited from earlier work
MIA-PaCa-2 = tested on: MIA-PaCa-2; design: method as in Watabe et al. [2020]; details: MIA-PaCa-2 tumor model, read from graphs; ref Watabe et al. [2020]; cited from earlier work
human FAP = biological target: T1, human FAP (Homo sapiens, UniProt Q12884); assay: FAP inhibition assay (IC50, Z-Gly-Pro-AMC substrate); format: biochemical
T1 construct: the human secretion signal was replaced with the HoneyBee mellitin secretion signal; HoneyBee mellitin secretion signal (replaces the native signal-anchor) (N); C-terminal tag of the BaculoDirect C-term kit (C); made in house; host or cells: Sf9 insect cells (baculovirus); purified from the supernatant
T1 sequence (Q12884 26-760 limits assumed): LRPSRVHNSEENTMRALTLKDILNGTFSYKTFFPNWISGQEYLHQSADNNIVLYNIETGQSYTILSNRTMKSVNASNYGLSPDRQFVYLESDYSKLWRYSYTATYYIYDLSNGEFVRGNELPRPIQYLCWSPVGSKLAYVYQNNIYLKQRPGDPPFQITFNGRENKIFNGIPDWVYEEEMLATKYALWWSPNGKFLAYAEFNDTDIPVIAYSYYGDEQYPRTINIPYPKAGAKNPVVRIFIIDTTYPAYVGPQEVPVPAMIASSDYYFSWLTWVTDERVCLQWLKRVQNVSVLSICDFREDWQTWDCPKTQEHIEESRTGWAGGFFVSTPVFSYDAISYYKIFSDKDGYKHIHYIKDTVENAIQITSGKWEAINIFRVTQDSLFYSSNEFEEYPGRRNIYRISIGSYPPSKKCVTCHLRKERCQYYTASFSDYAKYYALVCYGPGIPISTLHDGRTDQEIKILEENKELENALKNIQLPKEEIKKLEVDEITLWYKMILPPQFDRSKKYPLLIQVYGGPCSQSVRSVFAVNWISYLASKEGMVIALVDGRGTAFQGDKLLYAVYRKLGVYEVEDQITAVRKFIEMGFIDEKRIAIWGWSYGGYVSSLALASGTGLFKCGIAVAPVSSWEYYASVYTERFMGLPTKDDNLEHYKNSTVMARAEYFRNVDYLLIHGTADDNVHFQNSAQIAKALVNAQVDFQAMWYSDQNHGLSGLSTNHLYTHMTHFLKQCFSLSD
Source text: (§1) Enzymes: A gateway-entry clone for human FAP was purchased from Dharmacon (Accession number DQ891423) and the human secretion signal was replaced with the HoneyBee mellitin secretion signal. For transfection and expression of FAP in Sf9 insect cells, the C-terminal BaculoDirect kit from LifeTechnologies was used. The enzyme was purified from the supernatant of the insect cells using immobilized Ni-chelating chromatography (GE healthcare, Diegem, Belgium), followed by anion-exchange chromatography using a 1 mL HiTrap Q (GE healthcare, Diegem, Belgium). Human recombinant PREP was expressed in BL21(DE3) cells and purified using immobilized Co-chelating chromatography (GE healthcare) followed by anion-exchange chromatography on a 1 ml Mono Q column (GE healthcare).
(§2) Eight concentrations of inhibitors were tested. The final DMSO concentration was kept constant during the experiment to exclude any solvent effects. Inhibitors were pre-incubated with the enzyme for 15 min at 37 °C, afterwards the substrate was added and the velocities of AMC release were measured kinetically at λex = 380 nm, λem = 465 nm for at least 10 min at 37 °C. The Infinite 200 (Tecan Group Ltd.) micro-titer plate reader and the Magellan software were used for measurement and data processing respectively.
(§3) The data were fitted using a non-linear fit model in GraFit 7 software, according to the following equation: y=range/1+x/IC50^s where y is the value of the residual enzymatic activity compared to a non-inhibited sample, x is the final inhibitor concentration in the assay, s is the slope factor and the IC50 is the half maximal inhibitory concentration.

Human recombinant PREP = biological target: T2, Human recombinant PREP (Homo sapiens, UniProt P48147); assay: PREP inhibition assay (IC50, N-succinyl-Gly-Pro-AMC substrate); format: biochemical; details: N-succinyl-Gly-Pro-AMC 250 μM, pH 7.4, 15 min pre-incubation at 37 °C
T2 sequence (P48147 1-710): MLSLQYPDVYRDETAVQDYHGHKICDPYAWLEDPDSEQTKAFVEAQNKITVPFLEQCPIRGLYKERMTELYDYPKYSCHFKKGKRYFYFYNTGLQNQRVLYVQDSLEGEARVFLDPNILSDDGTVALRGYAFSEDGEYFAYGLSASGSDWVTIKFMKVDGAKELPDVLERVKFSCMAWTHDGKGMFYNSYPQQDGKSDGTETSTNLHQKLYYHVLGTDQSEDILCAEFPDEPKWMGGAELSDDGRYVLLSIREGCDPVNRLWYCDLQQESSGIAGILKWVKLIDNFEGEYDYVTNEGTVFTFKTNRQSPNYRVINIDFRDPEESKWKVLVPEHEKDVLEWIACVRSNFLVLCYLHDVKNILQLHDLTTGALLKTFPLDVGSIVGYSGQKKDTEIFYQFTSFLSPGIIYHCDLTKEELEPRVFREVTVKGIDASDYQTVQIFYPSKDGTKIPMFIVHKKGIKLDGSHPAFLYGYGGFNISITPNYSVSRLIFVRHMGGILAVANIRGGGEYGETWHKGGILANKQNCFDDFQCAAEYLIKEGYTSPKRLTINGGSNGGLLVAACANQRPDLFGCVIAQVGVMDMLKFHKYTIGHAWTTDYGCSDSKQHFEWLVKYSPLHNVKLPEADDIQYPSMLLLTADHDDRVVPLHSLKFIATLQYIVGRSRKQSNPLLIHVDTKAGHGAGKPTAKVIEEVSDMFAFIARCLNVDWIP
Source text: as §1
as §2, with “concentration is” for “concentration was”, “any” for “any solvent”, “data processing,” for “data processing”
as §3

[1] = Stability studies of gallium-68 complexes in media (EtOH, human serum, saline, PBS); format: physicochemical; details: different media (summary statement)
Protocol: Gallium-68 stability studies against transmetallation (Fe, Cu, Ca, Mg), transchelation (EDTA, DTPA) as well as in HS, EtOH and saline (0.9% isotone NaCl-solution) were performed. 50 μl of the [^68Ga]Ga-DOTA.SA.FAPi labeling solution with > 95% radiochemical purity were added to 1 mL of the respective media. The measured time points for gallium-68 were 15, 30, 45, 60, 90, 120 min. HS (human male AB plasma, USA origin) was bought from Sigma Aldrich, PBS was purchased from Sigma Aldrich and 0.9% saline from B. Braun Melsungen AG (Melsungen, Germany).

[2] = PANC-1 / MIA-PaCa-2, one value given

In the case of `N#C[C@@H]1CC(F)(F)CN1C(=O)CNC(=O)c1ccnc2ccc(OCCCN3CCN(C(=O)CN4CCN(CC(=O)[O-])CCN(CC(=O)[O-])CCN(CC(=O)[O-])CC4)CC3)cc12.[68Ga+3]` [[^68Ga]Ga-FAPI-04], the “SUVmean(60 min p.i.) Heart” value (HT-1080 FAP) is given as 0.16, the “SUVmean(60 min p.i.) Kidney” value (HT-1080 FAP) is given as 0.33 and the “SUVmean(60 min p.i.) Liver” value (HT-1080 FAP) is given as 0.11. The “SUVmean(60 min p.i.) Muscle” value (HT-1080 FAP) was 0.06, the “SUVmean(60 min p.i.) Tumor” value (HT-1080 FAP) was 0.45 and the “SUVmean(60 min p.i.) Heart” value (PANC-1; [2]) was 0.17. For the same molecule, the “SUVmean(60 min p.i.) Kidney” value (PANC-1; [2]) was 0.36, the “SUVmean(60 min p.i.) Liver” value (PANC-1; [2]) was 0.67 and the “SUVmean(60 min p.i.) Muscle” value (PANC-1; [2]) was 0.03. For the same molecule, the “SUVmean(60 min p.i.) Tumor” value (PANC-1; PANC-1 tumor model) was 0.14 and the “SUVmean(60 min p.i.) Tumor” value (MIA-PaCa-2) was 0.11.
For `N#C[C@@H]1CC(F)(F)CN1C(=O)CNC(=O)c1ccnc2ccc(OCCCCNc3c(NCCNC(=O)CN4CCN(CC(=O)O)CCN(CC(=O)O)CCN(CC(=O)O)CC4)c(=O)c3=O)cc12` [DOTA.SA.FAPi, (S)-2,2′,2″-(10-(2-((2-((2-((4-((4-((2-(2-cyano-4,4-difluoropyrrolidin-1-yl)-2-oxo-ethyl)carbamoyl)quinolin-6-yl)oxy)butyl)amino)-3,4-dioxocyclobut-1-en-1-yl)amino)ethyl)amino)-2-oxoethyl)-1,4,7,10-tetraazacyclododecane-1,4,7-triyl) triacetic acid], the IC50 (human FAP; Z-Gly-Pro-AMC 50 μM, pH 8, 15 min pre-incubation at 37 °C) was 0.9 ± 0.1 nM, the “Selectivity index (IC50 PREP / IC50 FAP)” value (human FAP; ratio of the IC50 values for FAP and PREP) was 6000 and the IC50 (Human recombinant PREP) was 5400 ± 300 nM. For the same molecule, the “Stability in different media, intact conjugate” value [1] was “more than 95%”.
